In patent US9266877B2, “Apoptosis-inducing agents for the treatment of cancer and immune and autoimmune diseases” (priority 2011, dated 2016):

What follows are molecules tested against Bcl-xL (Homo sapiens (Human), UniProt Q07817) (assay: Time Resolved-Fluorescence Resonance Energy Transfer (TR-FRET) binding assay, competition with F-Bak). Conditions: not given.
Sequence of Bcl-xL (Q07817 whole entry): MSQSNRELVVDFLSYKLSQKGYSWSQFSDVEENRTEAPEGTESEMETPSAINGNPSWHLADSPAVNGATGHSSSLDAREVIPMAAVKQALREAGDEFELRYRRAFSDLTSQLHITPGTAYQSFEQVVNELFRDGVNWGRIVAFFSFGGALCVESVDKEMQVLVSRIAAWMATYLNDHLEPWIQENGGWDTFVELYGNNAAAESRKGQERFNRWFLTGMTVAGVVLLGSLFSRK

Molecule Cc1c(-c2ccc(N3CCc4cccc(C(=O)Nc5nc6ccccc6s5)c4C3)nc2C(=O)O)cccc1N(C)C1CCCC(C)(C)C1 (centres unmarked) [Example 159, 6-[8-(1,3-benzothiazol-2-ylcarbamoyl)-3,4-dihydroisoquinolin-2(1H)-yl]-3-{3-[(3,3-dimethylcyclohexyl)(methyl)amino]-2-methylphenyl}pyridine-2-carboxylic acid] has a Ki of 0.0002 µM.

Same assay, conditions: competition with F-Bak probe, GST-Bcl-xL; read-out: TR-FRET binding Bcl-xL Ki

Cc1[nH]c(C#N)c(CC2CCCCC2)c1-c1ccc(N2CCc3cccc(C(=O)Nc4nc5ccccc5s4)c3C2)nc1C(=O)NS(C)(=O)=O [Example 171, N-(1,3-benzothiazol-2-yl)-2-{5-[5-cyano-4-(cyclohexylmethyl)-2-methyl-1H-pyrrol-3-yl]-6-[(methylsulfonyl)carbamoyl]pyridin-2-yl}-1,2,3,4-tetrahydroisoquinoline-8-carboxamide] was tested, and the Ki was < 0.0001 µM.

What follows are molecules tested on FL5.12 cells transfected with Bcl-XL (assay: FL5.12 Cellular Assay (cell viability, CellTiter-Glo)). Conditions: Mus musculus, FL5.12, 24 h, read-out: FL5.12 Bcl-xL, IL3, EC 50 (nM).
Format: cell-based, mouse
Method: For assaying the compound activity, the cells were exchanged into an IL-3-depleted deprivation media, which was identical to the growth media except for the absence of FBS and WEHI-3B conditional media, for 2 days. Then the cells were exchanged to 3% FBS assay media (RPMI with 2 mM glutamine, 1% 100 mM sodium pyruvate, 2% 1 M HEPES, 4 μL/L of β-mercaptoethanol, 1% penicillin-streptomycin, 3% FBS). Compounds in series dilutions were added, and the cells were cultured for 24 hours. […] Cell viability was assayed using the CellTiter-Glo assay (Promega Corp., Madison, Wis.) according to the manufacturer instructions. Individual determinations were the result of duplicate values.

Cc1[nH]c(C#N)c(CC2CCCCC2)c1-c1ccc(N2CCc3cccc(C(=O)Nc4nc5ccccc5s4)c3C2)nc1C(=O)NS(C)(=O)=O [Example 171, N-(1,3-benzothiazol-2-yl)-2-{5-[5-cyano-4-(cyclohexylmethyl)-2-methyl-1H-pyrrol-3-yl]-6-[(methylsulfonyl)carbamoyl]pyridin-2-yl}-1,2,3,4-tetrahydroisoquinoline-8-carboxamide] and Cc1c(OC2CCCC(C)(C)C2)cccc1-c1ccc(N2CCc3cccc(C(=O)Nc4nc5ccccc5s4)c3C2)nc1C(=O)O (centres unmarked) [Example 121, 6-[8-(1,3-benzothiazol-2-ylcarbamoyl)-3,4-dihydroisoquinolin-2(1H)-yl]-3-{3-[(3,3-dimethylcyclohexyl)oxy]-2-methylphenyl}pyridine-2-carboxylic acid] are within 1.5-fold of each other in EC50: 97 nM for the first, 87 nM for the second.

Same assay, conditions: mouse FL5.12 cells transfected with Bcl-XL, IL-3-depleted, 3% FBS assay media, 24 hours; read-out: FL5.12 Bcl-xL, IL3, EC 50

CC(C)(C)Cn1cc(-c2ccc(N3CCc4cccc(C(=O)Nc5nc6ccccc6s5)c4C3)nc2C(=O)O)cn1 [Example 59, 6-[8-(1,3-benzothiazol-2-ylcarbamoyl)-3,4-dihydroisoquinolin-2(1H)-yl]-3-[1-(2,2-dimethylpropyl)-1H-pyrazol-4-yl]pyridine-2-carboxylic acid] and O=C(Nc1nc2ccccc2s1)c1cccc2c1CN(c1ccc(-c3cnn(Cc4ccccn4)c3)c(C(=O)O)n1)CC2 [Example 26, 6-[8-(1,3-benzothiazol-2-ylcarbamoyl)-3,4-dihydroisoquinolin-2(1H)-yl]-3-[1-(pyridin-2-ylmethyl)-1H-pyrazol-4-yl]pyridine-2-carboxylic acid] cannot be ordered by EC50: > 1000 nM for the first, > 1000 nM for the second.

O=C(Nc1nc2ccccc2s1)c1cccc2c1CN(c1ccc(-c3cnn(CCc4ccccc4)c3)c(C(=O)O)n1)CC2 [Example 38, 6-[8-(1,3-benzothiazol-2-ylcarbamoyl)-3,4-dihydroisoquinolin-2(1H)-yl]-3-[1-(2-phenylethyl)-1H-pyrazol-4-yl]pyridine-2-carboxylic acid] and O=C(Nc1nc2ccccc2s1)c1cccc2c1CN(c1ccc(-c3cnn(Cc4cccc(O)c4)c3)c(C(=O)O)n1)CC2 [Example 17, 6-[8-(1,3-benzothiazol-2-ylcarbamoyl)-3,4-dihydroisoquinolin-2(1H)-yl]-3-[1-(3-hydroxybenzyl)-1H-pyrazol-4-yl]pyridine-2-carboxylic acid] cannot be ordered by EC50: > 1000 nM for the first, > 1000 nM for the second.

O=C(Nc1nc2ccccc2s1)c1cccc2c1CN(c1ccc(-c3cnn(Cc4ccc(Cl)cc4)c3)c(C(=O)O)n1)CC2 [Example 15, 6-[8-(1,3-benzothiazol-2-ylcarbamoyl)-3,4-dihydroisoquinolin-2(1H)-yl]-3-[1-(4-chlorobenzyl)-1H-pyrazol-4-yl]pyridine-2-carboxylic acid] and O=C(Nc1nc2cccc(Cl)c2s1)c1cccc2c1CN(c1ccc(-c3cnn(Cc4ccccc4)c3)c(C(=O)O)n1)CC2 [Example 21, 3-(1-benzyl-1H-pyrazol-4-yl)-6-{8-[(7-chloro-1,3-benzothiazol-2-yl)carbamoyl]-3,4-dihydroisoquinolin-2(1H)-yl}pyridine-2-carboxylic acid] cannot be ordered by EC50: > 1000 nM for the first, > 1000 nM for the second.

N#Cc1cccc(Cn2cc(-c3ccc(N4CCc5cccc(C(=O)Nc6nc7ccccc7s6)c5C4)nc3C(=O)O)cn2)c1 [Example 24, 6-[8-(1,3-benzothiazol-2-ylcarbamoyl)-3,4-dihydroisoquinolin-2(1H)-yl]-3-[1-(3-cyanobenzyl)-1H-pyrazol-4-yl]pyridine-2-carboxylic acid] and COc1cccc(Cn2cc(-c3ccc(N4CCc5cccc(C(=O)Nc6nc7ccccc7s6)c5C4)nc3C(=O)O)cn2)c1 [Example 14, 6-[8-(1,3-benzothiazol-2-ylcarbamoyl)-3,4-dihydroisoquinolin-2(1H)-yl]-3-[1-(3-methoxybenzyl)-1H-pyrazol-4-yl]pyridine-2-carboxylic acid] cannot be ordered by EC50: > 1000 nM for the first, > 1000 nM for the second.

O=C(Nc1nc2ccccc2s1)c1cccc2c1CN(c1ccc(-c3cnn(Cc4cccnc4)c3)c(C(=O)O)n1)CC2 [Example 3, 6-[8-(1,3-benzothiazol-2-ylcarbamoyl)-3,4-dihydroisoquinolin-2(1H)-yl]-3-[1-(pyridin-3-ylmethyl)-1H-pyrazol-4-yl]pyridine-2-carboxylic acid] and COc1ccc2nc(NC(=O)c3cccc4c3CN(c3ccc(-c5cnn(Cc6ccccc6)c5)c(C(=O)O)n3)CC4)sc2c1 [Example 11, 3-(1-benzyl-1H-pyrazol-4-yl)-6-{8-[(6-methoxy-1,3-benzothiazol-2-yl)carbamoyl]-3,4-dihydroisoquinolin-2(1H)-yl}pyridine-2-carboxylic acid] cannot be ordered by EC50: > 1000 nM for the first, > 1000 nM for the second.

Going from Cc1c(-c2ccc(N3CCc4cccc(C(=O)Nc5nc6ccccc6s5)c4C3)nc2C(=O)O)cnn1C[C@@H]1CC[C@@H]2C[C@H]1C2(C)C [Example 85, 6-[8-(1,3-benzothiazol-2-ylcarbamoyl)-3,4-dihydroisoquinolin-2(1H)-yl]-3-(1-{[(1R,2R,5R)-6,6-dimethylbicyclo[3.1.1]hept-2-yl]methyl}-5-methyl-1H-pyrazol-4-yl)pyridine-2-carboxylic acid] to COCCCC1(Cn2ncc(-c3ccc(N4CCc5cccc(C(=O)Nc6nc7ccccc7s6)c5C4)nc3C(=O)O)c2C)CCCCC1 [Example 97, 6-[8-(1,3-benzothiazol-2-ylcarbamoyl)-3,4-dihydroisoquinolin-2(1H)-yl]-3-(1-{[1-(3-methoxypropyl)cyclohexyl]methyl}-5-methyl-1H-pyrazol-4-yl)pyridine-2-carboxylic acid], the EC50 falls from 12 nM to < 1 nM. The second is the more potent here.

In the case of O=C(Nc1nc2ccccc2s1)c1cccc2c1CN(c1ccc(-c3cccc(Oc4ccccc4)c3)c(C(=O)O)n1)CC2 [Example 103, 6-[8-(1,3-benzothiazol-2-ylcarbamoyl)-3,4-dihydroisoquinolin-2(1H)-yl]-3-(3-phenoxyphenyl)pyridine-2-carboxylic acid], the EC50 is reported as > 1000 nM.
